Consider 1 molecule from PMC5725665, “Discovery of a Highly Selective Cell‐Active Inhibitor of the Histone Lysine Demethylases KDM2/7” (Angewandte Chemie (International Ed. in English), 2017).

Where only a bound is given, the exact number is not on record here.

What all share (assay): biochemical
Holding throughout (set-up): AlphaScreen histone demethylase activity assay
A general note: Bead proximity is the source of the signal in Alpha formats.

Test [1] deals with T1, JMJD2A (KDM4A) (Homo sapiens, UniProt O75164).
T1 sequence (O75164 1-1064): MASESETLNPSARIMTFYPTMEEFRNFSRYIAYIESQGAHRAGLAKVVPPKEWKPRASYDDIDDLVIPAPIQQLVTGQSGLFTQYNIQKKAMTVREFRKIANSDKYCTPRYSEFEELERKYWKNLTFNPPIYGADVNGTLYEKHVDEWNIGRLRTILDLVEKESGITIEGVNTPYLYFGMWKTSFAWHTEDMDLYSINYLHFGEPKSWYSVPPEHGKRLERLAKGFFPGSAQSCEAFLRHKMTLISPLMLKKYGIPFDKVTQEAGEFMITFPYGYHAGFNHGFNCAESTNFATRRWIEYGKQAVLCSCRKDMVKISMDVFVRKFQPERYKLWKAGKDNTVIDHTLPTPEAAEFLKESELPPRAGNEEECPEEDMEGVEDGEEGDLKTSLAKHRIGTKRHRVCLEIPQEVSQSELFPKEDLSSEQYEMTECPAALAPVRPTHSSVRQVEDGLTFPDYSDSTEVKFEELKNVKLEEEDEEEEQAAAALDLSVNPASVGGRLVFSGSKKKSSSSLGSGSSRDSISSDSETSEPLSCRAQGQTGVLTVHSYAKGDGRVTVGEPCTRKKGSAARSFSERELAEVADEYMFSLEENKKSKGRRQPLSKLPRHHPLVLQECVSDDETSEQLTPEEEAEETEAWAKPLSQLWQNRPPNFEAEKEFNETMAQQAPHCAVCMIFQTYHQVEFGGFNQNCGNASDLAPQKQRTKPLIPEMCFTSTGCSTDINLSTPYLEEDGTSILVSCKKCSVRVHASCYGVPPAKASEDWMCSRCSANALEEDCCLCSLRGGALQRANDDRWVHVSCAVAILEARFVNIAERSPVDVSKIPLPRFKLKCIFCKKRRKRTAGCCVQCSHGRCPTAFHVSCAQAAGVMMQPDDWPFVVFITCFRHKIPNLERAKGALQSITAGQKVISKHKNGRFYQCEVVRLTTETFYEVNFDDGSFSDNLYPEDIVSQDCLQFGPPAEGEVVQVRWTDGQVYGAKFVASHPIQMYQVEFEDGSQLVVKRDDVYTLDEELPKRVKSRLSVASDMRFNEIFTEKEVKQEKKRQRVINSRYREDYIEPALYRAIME
To be noted: read-out: KDM4A pIC50 (converted). From the text:
(§1) A base‐mediated 5‐endo‐trig cyclization of a C‐2‐substituted aromatic imine afforded the racemic indoline core with two adjacent stereocenters. Subsequent acylation of the indoline ring system conferred stability towards oxidation and provided a handle for modulating polarity. Finally, metal‐catalysed cross‐coupling of the aryl bromide provided access to a variety of linkers between the indoline core and pyrrolidine capping group. In total, 45 racemic compounds were synthesized, and IC50 values for inhibition of KDM2A were determined using two orthogonal enzyme activity assays: AlphaScreen25 and RapidFire MS26 (see Section S3.1 in the Supporting Information for complete inhibition data). Key structure–activity relationships are summarized below (Scheme 1 B, compounds 2–12). […] In immunofluorescence assays using HeLa cells ectopically expressing catalytically active KDM2A, a dose‐dependent increase in H3K36me2 staining was observed upon incubation with (S,S)‐6, reflecting augmented cellular H3K36me2 levels (Figure 2 A and Section S3.3). […] To profile its selectivity, (S,S)‐6 was tested for inhibitory activity against a panel of KDMs, methyllysine binding motifs, and epigenetic enzymes.

Test [2] addresses PHF8 (KDM7B) (Homo sapiens, UniProt Q9UPP1). To be noted: read-out: KDM7B pIC50 (converted).
Text: as §1

Test [3] deals with T2, JMJD1A (KDM3A) (Homo sapiens, UniProt Q9Y4C1).
T2 sequence (Q9Y4C1 1-1321): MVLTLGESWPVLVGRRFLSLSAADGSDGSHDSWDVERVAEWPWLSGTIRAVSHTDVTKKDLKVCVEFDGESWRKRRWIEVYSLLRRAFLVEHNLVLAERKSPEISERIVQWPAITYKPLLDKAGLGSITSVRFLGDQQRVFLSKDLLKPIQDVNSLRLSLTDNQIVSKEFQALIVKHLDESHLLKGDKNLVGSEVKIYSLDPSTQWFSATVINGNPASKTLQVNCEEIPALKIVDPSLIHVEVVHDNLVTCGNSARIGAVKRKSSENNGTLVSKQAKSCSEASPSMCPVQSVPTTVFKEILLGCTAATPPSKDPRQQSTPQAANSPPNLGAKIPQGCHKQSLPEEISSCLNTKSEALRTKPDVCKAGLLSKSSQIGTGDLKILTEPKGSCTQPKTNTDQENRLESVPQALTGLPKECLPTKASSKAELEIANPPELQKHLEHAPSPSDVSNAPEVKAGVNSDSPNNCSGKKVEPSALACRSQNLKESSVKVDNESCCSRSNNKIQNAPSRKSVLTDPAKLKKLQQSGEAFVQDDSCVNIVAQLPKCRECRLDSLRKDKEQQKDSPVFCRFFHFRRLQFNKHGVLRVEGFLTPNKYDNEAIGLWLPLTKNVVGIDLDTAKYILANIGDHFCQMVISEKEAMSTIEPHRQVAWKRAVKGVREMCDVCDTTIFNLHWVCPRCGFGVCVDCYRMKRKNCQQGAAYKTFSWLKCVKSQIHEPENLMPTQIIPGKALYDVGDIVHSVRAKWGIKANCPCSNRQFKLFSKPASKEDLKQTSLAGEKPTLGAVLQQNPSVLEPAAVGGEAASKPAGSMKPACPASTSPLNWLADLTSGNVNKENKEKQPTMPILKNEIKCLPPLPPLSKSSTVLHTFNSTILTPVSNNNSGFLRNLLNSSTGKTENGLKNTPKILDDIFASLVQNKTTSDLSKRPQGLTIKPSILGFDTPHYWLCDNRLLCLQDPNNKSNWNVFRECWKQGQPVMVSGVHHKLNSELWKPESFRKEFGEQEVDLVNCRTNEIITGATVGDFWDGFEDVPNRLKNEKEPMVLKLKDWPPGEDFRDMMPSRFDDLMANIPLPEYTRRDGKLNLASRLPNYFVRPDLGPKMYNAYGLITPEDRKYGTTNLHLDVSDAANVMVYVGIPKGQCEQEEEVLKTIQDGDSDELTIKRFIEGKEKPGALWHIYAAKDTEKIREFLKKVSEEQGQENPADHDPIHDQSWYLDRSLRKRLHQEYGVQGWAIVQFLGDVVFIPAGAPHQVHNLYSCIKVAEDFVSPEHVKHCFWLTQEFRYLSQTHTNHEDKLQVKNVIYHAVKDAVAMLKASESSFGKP
Text: as §1

In test [4] the target is JARID1C (KDM5C) (Homo sapiens, UniProt P41229). To be noted: read-out: KDM5C pIC50 (converted).
Text: as §1

Chain of PHF8 (KDM7B) (Q9UPP1 whole entry): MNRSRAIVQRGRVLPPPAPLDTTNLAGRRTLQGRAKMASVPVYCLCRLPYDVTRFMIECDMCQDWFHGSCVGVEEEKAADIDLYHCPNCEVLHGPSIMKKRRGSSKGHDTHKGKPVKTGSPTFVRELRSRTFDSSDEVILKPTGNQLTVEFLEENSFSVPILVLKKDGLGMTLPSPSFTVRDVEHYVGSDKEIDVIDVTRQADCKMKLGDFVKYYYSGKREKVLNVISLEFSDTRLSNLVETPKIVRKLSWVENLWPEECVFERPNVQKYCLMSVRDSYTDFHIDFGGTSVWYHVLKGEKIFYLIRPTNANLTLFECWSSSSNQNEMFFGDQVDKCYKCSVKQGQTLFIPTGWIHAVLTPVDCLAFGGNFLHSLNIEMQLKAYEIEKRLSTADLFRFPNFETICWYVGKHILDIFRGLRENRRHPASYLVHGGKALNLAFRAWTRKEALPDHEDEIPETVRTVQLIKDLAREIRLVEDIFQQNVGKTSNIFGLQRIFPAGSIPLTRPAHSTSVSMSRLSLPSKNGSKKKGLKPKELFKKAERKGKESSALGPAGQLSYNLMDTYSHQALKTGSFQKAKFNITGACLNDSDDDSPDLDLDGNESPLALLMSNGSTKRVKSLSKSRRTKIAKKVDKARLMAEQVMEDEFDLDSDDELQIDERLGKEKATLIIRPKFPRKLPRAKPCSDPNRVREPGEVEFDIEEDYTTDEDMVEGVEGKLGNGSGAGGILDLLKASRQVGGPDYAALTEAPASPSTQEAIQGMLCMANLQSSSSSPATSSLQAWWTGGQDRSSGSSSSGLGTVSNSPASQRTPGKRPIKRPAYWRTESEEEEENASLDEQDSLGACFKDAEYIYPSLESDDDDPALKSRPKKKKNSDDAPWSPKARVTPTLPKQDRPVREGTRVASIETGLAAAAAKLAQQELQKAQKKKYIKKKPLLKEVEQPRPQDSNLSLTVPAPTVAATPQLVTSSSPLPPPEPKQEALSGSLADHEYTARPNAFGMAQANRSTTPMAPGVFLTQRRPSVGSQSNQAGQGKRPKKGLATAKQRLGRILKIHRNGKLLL
Chain of JARID1C (KDM5C) (P41229 whole entry): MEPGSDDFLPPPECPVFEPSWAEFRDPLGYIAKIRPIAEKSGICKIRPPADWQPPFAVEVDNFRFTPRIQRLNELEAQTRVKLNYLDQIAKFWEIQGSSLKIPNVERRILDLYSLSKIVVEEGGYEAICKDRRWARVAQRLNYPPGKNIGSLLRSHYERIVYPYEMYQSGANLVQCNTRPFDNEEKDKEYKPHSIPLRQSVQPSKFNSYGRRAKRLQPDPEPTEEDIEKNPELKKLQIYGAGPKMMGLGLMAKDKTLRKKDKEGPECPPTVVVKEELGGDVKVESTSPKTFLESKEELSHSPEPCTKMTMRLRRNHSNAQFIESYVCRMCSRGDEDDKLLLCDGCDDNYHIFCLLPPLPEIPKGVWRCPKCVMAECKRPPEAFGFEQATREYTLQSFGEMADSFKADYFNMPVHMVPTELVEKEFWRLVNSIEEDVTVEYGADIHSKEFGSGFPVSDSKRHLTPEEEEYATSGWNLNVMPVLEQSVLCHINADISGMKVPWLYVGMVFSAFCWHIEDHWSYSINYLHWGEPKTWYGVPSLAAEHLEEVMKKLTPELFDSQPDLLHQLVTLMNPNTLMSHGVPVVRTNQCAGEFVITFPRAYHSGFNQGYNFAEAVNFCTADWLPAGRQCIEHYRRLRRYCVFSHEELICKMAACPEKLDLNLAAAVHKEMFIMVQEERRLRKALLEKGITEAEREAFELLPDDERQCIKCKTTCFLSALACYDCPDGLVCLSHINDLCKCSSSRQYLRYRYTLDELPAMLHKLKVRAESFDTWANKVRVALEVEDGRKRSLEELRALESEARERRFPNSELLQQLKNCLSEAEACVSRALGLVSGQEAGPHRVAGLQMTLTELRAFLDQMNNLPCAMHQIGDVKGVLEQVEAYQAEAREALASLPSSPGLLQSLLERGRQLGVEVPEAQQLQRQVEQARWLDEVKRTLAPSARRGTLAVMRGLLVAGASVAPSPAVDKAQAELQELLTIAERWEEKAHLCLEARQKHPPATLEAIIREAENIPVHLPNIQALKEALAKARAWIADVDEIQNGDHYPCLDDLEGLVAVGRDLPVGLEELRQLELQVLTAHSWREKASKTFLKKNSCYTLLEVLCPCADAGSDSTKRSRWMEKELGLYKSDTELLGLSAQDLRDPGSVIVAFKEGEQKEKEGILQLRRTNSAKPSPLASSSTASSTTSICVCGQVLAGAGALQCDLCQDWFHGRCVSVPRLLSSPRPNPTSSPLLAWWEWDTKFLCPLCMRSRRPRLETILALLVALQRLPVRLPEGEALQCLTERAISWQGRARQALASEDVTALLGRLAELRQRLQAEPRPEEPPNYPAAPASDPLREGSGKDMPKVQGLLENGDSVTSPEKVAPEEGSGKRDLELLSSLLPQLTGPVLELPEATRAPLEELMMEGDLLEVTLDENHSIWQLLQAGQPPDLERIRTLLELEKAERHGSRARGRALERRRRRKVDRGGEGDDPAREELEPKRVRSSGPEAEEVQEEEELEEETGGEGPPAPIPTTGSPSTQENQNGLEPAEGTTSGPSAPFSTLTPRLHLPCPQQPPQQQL

In general, inhibition refers to the drop in the measured response relative to a control, in per cent. Read a high inhibition as strong suppression. As to `CC(=O)N1c2ccccc2[C@@](C#N)(c2ccccc2)[C@@H]1c1cncc(CCCCCCCN2CCCC2)c1` [(S,S)-6], the IC50 was greater than 20 µM in test [1], 22.8 µM in test [2], greater than 100 µM in test [3] (read-out: KDM3A pIC50 (converted)) and 15.7 µM in test [4]. This molecule had an inhibition at 100 µM in test [3] of 35.4%.
